# Laboratory results published in ChEMBL document CHEMBL1201862, “PubChem BioAssay data set” (2004).
# Where a name gives a salt, the structure may show the parent alone. Active and inactive are the calls of the source.
# Legend:
# [1] = biological target: Nuclear receptor subfamily 5 group A member 2 (Homo sapiens, UniProt O00482); type: functional, cell-based;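 note: HEK293T cells transfected with LRH-1 and a StAR promoter luciferase reporter; potency for inhibitors that lower LRH-1 driven reporter light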
# Sequence of Nuclear receptor subfamily 5 group A member 2 (O00482 whole entry): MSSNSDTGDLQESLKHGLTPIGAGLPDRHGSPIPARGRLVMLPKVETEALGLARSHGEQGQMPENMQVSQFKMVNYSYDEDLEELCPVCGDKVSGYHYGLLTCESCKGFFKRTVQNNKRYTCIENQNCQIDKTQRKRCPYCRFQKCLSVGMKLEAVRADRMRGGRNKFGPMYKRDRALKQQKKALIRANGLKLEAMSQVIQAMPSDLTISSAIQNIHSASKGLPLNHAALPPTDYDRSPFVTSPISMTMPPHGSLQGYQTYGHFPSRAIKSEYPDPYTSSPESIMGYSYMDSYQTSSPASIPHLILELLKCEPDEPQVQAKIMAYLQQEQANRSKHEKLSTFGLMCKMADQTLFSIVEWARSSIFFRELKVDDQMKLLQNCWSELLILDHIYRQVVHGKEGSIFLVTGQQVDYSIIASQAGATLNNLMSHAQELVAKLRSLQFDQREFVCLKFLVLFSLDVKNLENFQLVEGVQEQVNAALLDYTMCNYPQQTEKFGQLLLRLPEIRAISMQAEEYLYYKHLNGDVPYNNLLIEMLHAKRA
# [2] = StAR promoter reporter inhibition counter-screen, dose response, counter-screen for LRH-1 inverse agonist project, cell-based, luminescence, luciferase reporter (AID 651969); type: functional
# [3] = biological target: Steroidogenic factor 1 (Homo sapiens, UniProt Q13285); experiment: Counterscreen for inverse agonists of the liver receptor homolog-1 (LRH-1; NR5A2): Luminescence-based cell-based high throughput dose response assay to identify inverse agonists of the Steroidogenic Factor 1 Nuclear Receptor (SF1; NR5A1).; type: functional
# Sequence of Steroidogenic factor 1 (Q13285 whole entry): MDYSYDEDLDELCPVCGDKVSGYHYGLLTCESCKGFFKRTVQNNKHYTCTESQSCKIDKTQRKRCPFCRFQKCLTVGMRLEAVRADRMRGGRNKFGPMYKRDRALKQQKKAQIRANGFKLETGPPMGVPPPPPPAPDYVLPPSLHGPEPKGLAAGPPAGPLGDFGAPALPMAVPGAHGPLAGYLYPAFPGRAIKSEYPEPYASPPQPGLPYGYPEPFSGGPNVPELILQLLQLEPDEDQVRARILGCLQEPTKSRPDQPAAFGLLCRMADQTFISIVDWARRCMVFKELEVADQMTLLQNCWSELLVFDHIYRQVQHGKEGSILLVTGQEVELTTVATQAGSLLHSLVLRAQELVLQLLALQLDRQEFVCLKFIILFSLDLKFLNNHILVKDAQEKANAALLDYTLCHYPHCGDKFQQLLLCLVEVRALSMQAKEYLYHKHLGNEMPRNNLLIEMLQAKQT
# [4] = biological target: Melanocortin receptor 4 (Homo sapiens, UniProt P32245); type: functional, cell-based;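 note: Cell-based assay with luminescence read-out, confirmatory dose-response testing for agonist activity of biased ligands at MC4R; human U2OS cells with tagged receptor and beta-arrestin; potency of agonists that increase receptor coupling to beta-arrestin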
# Sequence of Melanocortin receptor 4 (P32245 whole entry): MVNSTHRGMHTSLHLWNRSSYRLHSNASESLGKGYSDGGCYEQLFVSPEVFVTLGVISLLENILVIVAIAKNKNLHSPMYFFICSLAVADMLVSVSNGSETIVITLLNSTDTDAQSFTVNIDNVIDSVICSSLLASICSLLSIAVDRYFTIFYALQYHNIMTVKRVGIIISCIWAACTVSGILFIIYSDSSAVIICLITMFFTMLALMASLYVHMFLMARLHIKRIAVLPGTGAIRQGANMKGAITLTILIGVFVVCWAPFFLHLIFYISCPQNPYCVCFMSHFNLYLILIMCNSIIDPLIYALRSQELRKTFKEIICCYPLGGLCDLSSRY
# [5] = biological target: Genome polyprotein (dengue virus type 2, UniProt P29990); experiment: Dengue-2 NS5 methyltransferase inhibitors, primary screen, biochemical, confirmation dose response (AID 588689); type: functional
# Sequence of Genome polyprotein (P29990 2492-3391 limits assumed): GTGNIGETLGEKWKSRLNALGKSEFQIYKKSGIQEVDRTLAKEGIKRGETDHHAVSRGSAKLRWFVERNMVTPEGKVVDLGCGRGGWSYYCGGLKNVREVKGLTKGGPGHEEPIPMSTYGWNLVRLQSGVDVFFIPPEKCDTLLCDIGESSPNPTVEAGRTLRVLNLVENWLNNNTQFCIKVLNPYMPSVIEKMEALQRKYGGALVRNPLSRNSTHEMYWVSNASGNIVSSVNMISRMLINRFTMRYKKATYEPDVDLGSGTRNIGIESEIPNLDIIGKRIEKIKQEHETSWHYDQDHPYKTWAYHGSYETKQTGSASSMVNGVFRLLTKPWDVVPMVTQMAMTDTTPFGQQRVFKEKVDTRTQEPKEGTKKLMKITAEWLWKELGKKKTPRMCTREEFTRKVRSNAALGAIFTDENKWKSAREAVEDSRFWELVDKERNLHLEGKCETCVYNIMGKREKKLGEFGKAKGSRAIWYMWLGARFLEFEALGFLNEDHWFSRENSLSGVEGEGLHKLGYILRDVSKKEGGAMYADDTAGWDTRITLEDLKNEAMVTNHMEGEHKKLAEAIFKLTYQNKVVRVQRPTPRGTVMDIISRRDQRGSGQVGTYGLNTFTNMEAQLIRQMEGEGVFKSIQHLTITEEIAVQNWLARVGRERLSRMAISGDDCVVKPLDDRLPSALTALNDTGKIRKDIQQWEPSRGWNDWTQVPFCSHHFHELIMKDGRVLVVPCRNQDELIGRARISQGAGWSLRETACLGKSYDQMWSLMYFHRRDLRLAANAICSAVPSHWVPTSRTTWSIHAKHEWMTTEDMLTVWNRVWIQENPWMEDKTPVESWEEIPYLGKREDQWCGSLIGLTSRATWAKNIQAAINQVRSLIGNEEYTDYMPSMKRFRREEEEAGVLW
# [6] = biological target: T1, Hepatocyte nuclear factor 4-alpha (Homo sapiens, UniProt P41235); type: functional, cell-based;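 note: biochemical luminescence-based dose-response counterscreen measuring inhibition of HNF4 dimerization, run alongside a screen for blockers of ABHD5–perilipin-5 interaction; split luciferase complementation of HNF4 fusion proteins in cell lysate measuring dimerization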
# T1 sequence (P41235 whole entry): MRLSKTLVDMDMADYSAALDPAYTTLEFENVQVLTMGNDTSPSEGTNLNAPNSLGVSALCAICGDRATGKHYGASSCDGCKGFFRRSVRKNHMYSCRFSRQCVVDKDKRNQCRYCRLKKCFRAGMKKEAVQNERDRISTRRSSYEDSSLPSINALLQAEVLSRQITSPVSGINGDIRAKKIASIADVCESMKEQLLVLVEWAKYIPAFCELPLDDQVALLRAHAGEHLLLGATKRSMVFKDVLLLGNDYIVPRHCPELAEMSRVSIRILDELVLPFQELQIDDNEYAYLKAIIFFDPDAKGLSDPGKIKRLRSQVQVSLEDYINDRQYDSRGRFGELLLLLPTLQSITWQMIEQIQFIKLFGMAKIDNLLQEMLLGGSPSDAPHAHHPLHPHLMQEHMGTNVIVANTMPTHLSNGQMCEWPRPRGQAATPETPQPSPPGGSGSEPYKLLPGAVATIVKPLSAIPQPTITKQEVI
# [7] = biological target: T2, Caspase-3 (Homo sapiens, UniProt P42574); experiment: SAR Analysis of small molecule inhibitors of Sentrin-specific proteases (SENPs) using a Caspase-3 Selectivity assay. [Related pubchem assays (depositor defined):AID2540, AID2599, AID434973, AID489001]; type: functional
# T2 sequence (P42574 whole entry): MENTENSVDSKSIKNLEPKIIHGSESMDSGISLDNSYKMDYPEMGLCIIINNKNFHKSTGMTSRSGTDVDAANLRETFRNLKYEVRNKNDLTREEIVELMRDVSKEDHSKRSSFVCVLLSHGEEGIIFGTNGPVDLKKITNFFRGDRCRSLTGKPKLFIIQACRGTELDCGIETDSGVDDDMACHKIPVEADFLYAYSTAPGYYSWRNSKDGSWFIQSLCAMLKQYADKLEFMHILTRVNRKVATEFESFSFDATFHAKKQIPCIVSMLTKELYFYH
# [8] = biological target: T3, Sentrin-specific protease 8 (Homo sapiens, UniProt Q96LD8); experiment: SENP8 protease inhibitors, SAR follow-up, biochemical, luminescence (AID 504501); type: functional
# T3 sequence (Q96LD8 whole entry): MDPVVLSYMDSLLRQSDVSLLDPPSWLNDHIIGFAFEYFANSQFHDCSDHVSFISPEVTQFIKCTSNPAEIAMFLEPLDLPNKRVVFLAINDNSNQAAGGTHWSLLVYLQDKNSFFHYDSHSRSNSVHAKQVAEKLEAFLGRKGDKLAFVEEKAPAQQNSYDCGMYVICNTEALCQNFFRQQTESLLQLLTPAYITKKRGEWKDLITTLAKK
# [9] = biological target: T4, Sentrin-specific protease 6 (Homo sapiens, UniProt Q9GZR1); experiment: SAR Analysis of small molecule inhibitors of Sentrin-specific protease 6 (SENP6) using a Luminescent assay. [Related pubchem assays (depositor defined):AID2582, AID2599]; type: functional
# T4 sequence (Q9GZR1 whole entry): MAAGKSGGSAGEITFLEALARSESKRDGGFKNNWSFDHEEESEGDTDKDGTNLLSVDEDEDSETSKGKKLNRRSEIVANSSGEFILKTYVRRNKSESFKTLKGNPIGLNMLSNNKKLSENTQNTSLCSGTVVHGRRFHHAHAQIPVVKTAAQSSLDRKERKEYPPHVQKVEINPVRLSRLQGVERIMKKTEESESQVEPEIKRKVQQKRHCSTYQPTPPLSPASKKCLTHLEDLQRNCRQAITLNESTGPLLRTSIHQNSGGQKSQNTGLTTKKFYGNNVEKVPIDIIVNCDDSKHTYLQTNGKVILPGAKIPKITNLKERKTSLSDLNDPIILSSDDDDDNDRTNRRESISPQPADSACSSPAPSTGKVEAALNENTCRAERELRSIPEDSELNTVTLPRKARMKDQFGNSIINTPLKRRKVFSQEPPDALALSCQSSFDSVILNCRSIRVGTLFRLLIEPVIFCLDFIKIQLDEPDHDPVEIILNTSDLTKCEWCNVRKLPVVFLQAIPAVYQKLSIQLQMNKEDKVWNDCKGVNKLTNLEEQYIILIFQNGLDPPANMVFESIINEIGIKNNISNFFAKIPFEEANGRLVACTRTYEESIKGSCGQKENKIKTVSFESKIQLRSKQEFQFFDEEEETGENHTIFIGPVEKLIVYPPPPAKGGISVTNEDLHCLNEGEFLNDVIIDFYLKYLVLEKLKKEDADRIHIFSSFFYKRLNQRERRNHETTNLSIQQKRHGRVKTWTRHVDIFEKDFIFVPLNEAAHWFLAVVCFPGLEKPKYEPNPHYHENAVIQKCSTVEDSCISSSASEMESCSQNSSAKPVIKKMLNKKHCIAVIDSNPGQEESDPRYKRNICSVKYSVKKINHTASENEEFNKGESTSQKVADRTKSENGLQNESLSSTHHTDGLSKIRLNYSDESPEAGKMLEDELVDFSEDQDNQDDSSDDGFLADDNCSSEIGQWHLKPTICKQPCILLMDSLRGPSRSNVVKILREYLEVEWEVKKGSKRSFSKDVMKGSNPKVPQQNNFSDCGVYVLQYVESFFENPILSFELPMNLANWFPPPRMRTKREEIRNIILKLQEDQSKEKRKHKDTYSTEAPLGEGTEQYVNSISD
# [10] = biological target: T5, Sentrin-specific protease 7 (Homo sapiens, UniProt Q9BQF6); experiment: SENP7 protease inhibitors, SAR follow-up, biochemical, luminescence (AID 504497); type: functional
# T5 sequence (Q9BQF6 whole entry): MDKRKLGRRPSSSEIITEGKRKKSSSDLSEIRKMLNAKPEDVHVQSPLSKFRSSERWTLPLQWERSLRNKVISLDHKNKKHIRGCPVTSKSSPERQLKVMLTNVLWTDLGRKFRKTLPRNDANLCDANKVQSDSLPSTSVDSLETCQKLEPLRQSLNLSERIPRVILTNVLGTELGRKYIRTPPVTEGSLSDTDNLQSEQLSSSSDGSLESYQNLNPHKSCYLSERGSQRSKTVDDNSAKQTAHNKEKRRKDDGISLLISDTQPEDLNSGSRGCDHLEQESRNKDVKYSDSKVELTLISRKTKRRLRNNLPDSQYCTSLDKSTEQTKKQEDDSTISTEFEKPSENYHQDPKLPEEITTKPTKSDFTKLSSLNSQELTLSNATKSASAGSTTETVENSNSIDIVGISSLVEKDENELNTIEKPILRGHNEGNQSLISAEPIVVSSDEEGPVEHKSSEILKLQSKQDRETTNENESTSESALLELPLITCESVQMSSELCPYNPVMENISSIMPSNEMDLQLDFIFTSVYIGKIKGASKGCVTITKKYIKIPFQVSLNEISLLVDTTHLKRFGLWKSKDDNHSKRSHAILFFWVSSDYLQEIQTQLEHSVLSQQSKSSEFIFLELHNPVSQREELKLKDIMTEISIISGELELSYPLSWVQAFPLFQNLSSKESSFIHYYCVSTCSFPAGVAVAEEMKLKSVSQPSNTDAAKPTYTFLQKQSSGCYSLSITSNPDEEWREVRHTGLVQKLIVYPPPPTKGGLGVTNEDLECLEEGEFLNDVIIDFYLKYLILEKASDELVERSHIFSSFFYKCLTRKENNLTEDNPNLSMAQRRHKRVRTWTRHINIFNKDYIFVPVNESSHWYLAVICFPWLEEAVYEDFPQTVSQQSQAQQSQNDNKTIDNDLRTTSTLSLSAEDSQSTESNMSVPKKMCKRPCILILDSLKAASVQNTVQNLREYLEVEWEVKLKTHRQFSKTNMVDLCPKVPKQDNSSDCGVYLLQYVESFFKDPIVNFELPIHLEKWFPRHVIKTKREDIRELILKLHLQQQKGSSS
# [11] = system: Streptococcus sp. 'group A'; experiment: growth inhibition of control SK(-) GAS strain, dose response, counter-screen for streptokinase expression inhibitor project, luminescence, kanamycin, BacTiterGlo, confirmation (AID 1900); type: functional, organism-based
# [12] = biological target: T6, Streptokinase A (Streptococcus pyogenes serotype M1, UniProt P10520); experiment: S. pyogenes streptokinase expression inhibitors, potency, dose response, plasminogen activation absorbance, OD405 (AID 1914); type: functional, Streptococcus pyogenes M1 GAS;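 note: secreted streptokinase activity via plasminogen activation per viability signal from cell pellet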
# T6 sequence (P10520 whole entry): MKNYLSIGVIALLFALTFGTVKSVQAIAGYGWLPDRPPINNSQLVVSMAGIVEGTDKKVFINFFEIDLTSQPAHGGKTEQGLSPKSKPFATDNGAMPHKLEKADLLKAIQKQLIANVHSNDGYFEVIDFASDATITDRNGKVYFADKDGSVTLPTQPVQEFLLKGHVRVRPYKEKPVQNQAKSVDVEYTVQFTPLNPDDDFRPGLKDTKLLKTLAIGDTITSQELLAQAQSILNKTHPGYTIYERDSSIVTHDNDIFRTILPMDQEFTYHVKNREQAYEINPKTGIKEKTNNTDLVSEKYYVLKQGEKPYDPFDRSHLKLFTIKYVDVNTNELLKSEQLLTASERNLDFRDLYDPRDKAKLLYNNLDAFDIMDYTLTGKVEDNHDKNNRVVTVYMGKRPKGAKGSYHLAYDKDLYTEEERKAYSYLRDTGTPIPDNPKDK
# [13] = inhibitors of intracellular T. cruzi replication, confirmation, NIH3T3 host cells, beta-gal luminescence (AID 2044); type: functional, cell-based;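 note: intracellular parasites grown in NIH/3T3 mouse fibroblasts as host cells; luminescent beta-galactosidase reporter signal from transgenic T. cruzi replicating inside host cells; inhibitors lower the luminescence signal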
# [14] = system: Streptococcus; experiment: Group A Streptococcus viability loss, dose response, counter-screen for streptokinase expression inhibitor project, luminescence, BacTiterGlo (AID 1915); type: functional, organism-based;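 note: potency for reduction of bacterial viability or growth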
# [15] = cytotoxicity toward NIH3T3 fibroblasts, dose response, counter-screen, cell-based, ATP luminescence, mouse fibroblasts (AID 2010); type: functional;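 note: cells exposed to compound for about 90 hours before reading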
# [16] = biological target: T7, Probable nicotinate-nucleotide adenylyltransferase (Staphylococcus aureus (strain N315), UniProt P65502); type: functional, Staphylococcus aureus subsp. aureus N315;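 for IC50 Mean: confirmatory dose-response retesting of NadD inhibitor hits first found in an ultra-high-throughput screen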
# T7 sequence (P65502 whole entry): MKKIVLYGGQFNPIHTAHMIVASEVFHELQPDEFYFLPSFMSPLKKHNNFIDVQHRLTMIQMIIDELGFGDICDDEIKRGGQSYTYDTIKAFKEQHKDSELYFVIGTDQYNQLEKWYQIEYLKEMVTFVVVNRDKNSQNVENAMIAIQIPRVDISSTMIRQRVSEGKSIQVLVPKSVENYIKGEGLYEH
# [17] = biological target: T7, Probable nicotinate-nucleotide adenylyltransferase; type: functional, Staphylococcus aureus subsp. aureus N315; conditions: read-out: IC50_Mean
structure (smiles),measurement,setting,value
CCOc1ccc(CCNC(=O)CN2C(=O)NC3(CCc4ccccc43)C2=O)cc1OCC (configuration not stated),IC50,[1],16.7 µM (inactive)
same,IC50,[2],35.9 µM (inactive)
same,IC50,[3],4.33 µM (active)
Cc1cccnc1C(NC(=O)C1CCN(CCOc2ccc(Cl)cc2Cl)CC1)c1ccc(Cl)cc1 (configuration not stated),EC50,[4],> 89.2 µM (inactive)
O=C1NC(=O)N(c2ccccc2F)C(=O)/C1=C/c1ccc(Oc2ccc([N+](=O)[O-])cn2)cc1,IC50,[5],56.1 µM (active)
same,IC50,[6],1.88 µM (active)
NC(Cc1ccc(C(F)(F)F)cc1)c1csc(Nc2nccc(C(F)(F)F)n2)n1 (configuration not stated),EC50,[4],> 89.2 µM (inactive)
Cc1ccc(NC(=O)c2ncn(CCCN3CCN(Cc4cccc5ccccc45)CC3)n2)cc1C,EC50,[4],> 89.2 µM (inactive)
Fc1cc(F)cc(-c2noc(/C=C/c3ccccc3Cl)n2)c1,IC50,[7],> 99 µM (inactive)
same,IC50,[8],> 99 µM (inactive)
same,IC50,[9],> 99 µM (inactive)
same,IC50,[10],> 99 µM (inactive)
CN(C)CCOc1ccc(/C(=C(/CCCl)c2ccccc2)c2ccccc2)cc1 [TOREMIFENE CITRATE],EC50,[11],5.82 µM (active)
same,EC50,[12],25.9 µM (active)
same,IC50,[6],7.87 µM (active)
same,EC50,[13],28.4 µM (active)
same,EC50,[14],8.17 µM (active)
same,EC50,[15],> 60 µM (not active)
Cc1ccc(C)c(NC(=O)CSc2nnc(-c3[nH]nc4ccccc34)o2)c1,IC50,[1],53.5 µM (inactive)
same,IC50,[2],35.9 µM (inactive)
same,IC50,[3],5.07 µM (active)
Cc1ccc2nc(NC(=O)c3cc(=O)c4cc(C)c(C)cc4o3)sc2c1,IC50,[7],> 99 µM (inactive)
same,IC50,[8],> 99 µM (inactive)
same,IC50,[9],> 99 µM (inactive)
same,IC50,[10],> 99 µM (inactive)
O=C(NC1CCCCC1)C(c1ccccc1F)n1c(=O)c(-c2ccco2)nc2ccccc21 (configuration not stated),IC50,[6],1.84 µM (active)
CC(C)CC(=O)Nc1ccc(-c2nc3cc(Cl)ccc3s2)cc1,IC50,[7],> 99 µM (inactive)
same,IC50,[8],> 99 µM (inactive)
same,IC50,[9],> 99 µM (inactive)
same,IC50,[10],82.7 µM (active)
CCOc1ccc(Cc2nnc(SCC(=O)Nc3ccc(C(C)=O)cc3)nc2O)cc1,IC50,[1],13.5 µM (inactive)
same,IC50,[2],35.9 µM (inactive)
same,IC50,[3],5.1 µM (active)
Cc1ccc(-n2nc3c(c2NC(=O)c2ccc(Br)o2)CSC3)c(C)c1,IC50,[16],2.11 µM (active)
same,IC50,[17],8.03 µM (active)
Nc1ccc(-c2noc(/C=C/c3ccccc3)n2)cc1[N+](=O)[O-],IC50,[7],> 99 µM (inactive)
same,IC50,[8],> 99 µM (inactive)
same,IC50,[9],> 99 µM (inactive)
same,IC50,[10],> 99 µM (inactive)
COc1ccc(CCNC(=O)CN2C(=O)NC3(CCCCC3)C2=O)cc1,IC50,[1],16.5 µM (inactive)
same,IC50,[2],35.9 µM (inactive)
same,IC50,[3],1.74 µM (active)
